PubChem BioAssay (NCI)
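A five-concentration, 48-hour dose response in 96-well plates underlies each endpoint, interpolated linearly between surrounding concentrations. GI50 marks 50% less growth. TGI is the concentration that stops growth completely.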

Key:
Assay in all cases: NCI tumour cell line growth inhibition, 48 h
RPMI-8226 leukemia = system: RPMI-8226 leukemia
TK-10 renal = system: TK-10 renal
OVCAR-3 ovarian = system: OVCAR-3 ovarian
HS 578T breast = system: HS 578T breast
UACC-257 melanoma = system: UACC-257 melanoma
SK-MEL-5 melanoma = system: SK-MEL-5 melanoma
SF-268 CNS = system: SF-268 CNS
NCI-H226 lung = system: NCI-H226 lung
COLO 205 colon = system: COLO 205 colon
MDA-MB-435 = system: MDA-MB-435
OVCAR-5 ovarian = system: OVCAR-5 ovarian
NCI-H460 lung = system: NCI-H460 lung
786-0 renal = system: 786-0 renal
MALME-3M melanoma = system: MALME-3M melanoma
A549 NSCLC = system: A549 NSCLC
CAKI-1 renal = system: CAKI-1 renal
OVCAR-8 ovarian = system: OVCAR-8 ovarian
HOP-92 NSCLC = system: HOP-92 NSCLC
UO-31 renal = system: UO-31 renal
PC-3 prostate = system: PC-3 prostate
EKVX NSCLC = system: EKVX NSCLC
NCI-H23 lung = system: NCI-H23 lung
SNB-75 CNS = system: SNB-75 CNS
MOLT-4 leukemia = system: MOLT-4 leukemia
SK-OV-3 ovarian = system: SK-OV-3 ovarian
DU-145 prostate = system: DU-145 prostate
UACC-62 melanoma = system: UACC-62 melanoma
SK-MEL-2 melanoma = system: SK-MEL-2 melanoma
HCT-116 colon = system: HCT-116 colon
KM12 colon = system: KM12 colon
HT29 colon = system: HT29 colon
SF-295 CNS = system: SF-295 CNS
HL-60(TB) leukemia = system: HL-60(TB) leukemia
SF-539 CNS = system: SF-539 CNS
BT-549 breast = system: BT-549 breast
HOP-62 NSCLC = system: HOP-62 NSCLC
SW-620 colon = system: SW-620 colon
HCT-15 colon = system: HCT-15 colon
M14 melanoma = system: M14 melanoma
T-47D breast = system: T-47D breast
SN12C renal = system: SN12C renal
RXF 393 renal = system: RXF 393 renal
MDA-MB-231 breast = system: MDA-MB-231 breast
NCI/ADR-RES ovarian = system: NCI/ADR-RES ovarian
MDA-MB-468 breast = system: MDA-MB-468 breast
K-562 leukemia = system: K-562 leukemia
IGROV1 ovarian = system: IGROV1 ovarian
HCC-2998 colon = system: HCC-2998 colon
OVCAR-4 ovarian = system: OVCAR-4 ovarian
SK-MEL-28 melanoma = system: SK-MEL-28 melanoma
U251 CNS = system: U251 CNS
A498 renal = system: A498 renal
MCF7 breast = system: MCF7 breast
NCI-H522 lung = system: NCI-H522 lung
LOX IMVI melanoma = system: LOX IMVI melanoma
SNB-19 CNS = system: SNB-19 CNS
CCRF-CEM leukemia = system: CCRF-CEM leukemia
ACHN renal = system: ACHN renal

Cc1ccc(S(=O)(=O)c2nc(S(=O)(=O)c3ccc(C)cc3)c(Cl)s2)cc1
GI50 (RPMI-8226 leukemia): > 100 µM | TGI (RPMI-8226 leukemia): > 100 µM | GI50 (TK-10 renal): > 100 µM | TGI (TK-10 renal): > 100 µM | GI50 (OVCAR-3 ovarian): > 100 µM | TGI (OVCAR-3 ovarian): > 100 µM | GI50 (HS 578T breast): > 100 µM | TGI (HS 578T breast): > 100 µM | GI50 (UACC-257 melanoma): > 100 µM | TGI (UACC-257 melanoma): > 100 µM | GI50 (SK-MEL-5 melanoma): > 100 µM | TGI (SK-MEL-5 melanoma): > 100 µM | GI50 (SF-268 CNS): > 100 µM | TGI (SF-268 CNS): > 100 µM | GI50 (NCI-H226 lung): > 100 µM | TGI (NCI-H226 lung): > 100 µM | GI50 (COLO 205 colon): > 100 µM | TGI (COLO 205 colon): > 100 µM | GI50 (MDA-MB-435): > 100 µM | TGI (MDA-MB-435): > 100 µM | GI50 (OVCAR-5 ovarian): > 100 µM | TGI (OVCAR-5 ovarian): > 100 µM | GI50 (NCI-H460 lung): > 100 µM | TGI (NCI-H460 lung): > 100 µM | GI50 (786-0 renal): > 100 µM | TGI (786-0 renal): > 100 µM | GI50 (MALME-3M melanoma): > 100 µM | TGI (MALME-3M melanoma): > 100 µM | GI50 (A549 NSCLC): > 100 µM | TGI (A549 NSCLC): > 100 µM | GI50 (CAKI-1 renal): > 100 µM | TGI (CAKI-1 renal): > 100 µM | GI50 (OVCAR-8 ovarian): > 100 µM | TGI (OVCAR-8 ovarian): > 100 µM | GI50 (HOP-92 NSCLC): > 100 µM | TGI (HOP-92 NSCLC): > 100 µM | GI50 (UO-31 renal): > 100 µM | TGI (UO-31 renal): > 100 µM | GI50 (PC-3 prostate): > 100 µM | TGI (PC-3 prostate): > 100 µM | GI50 (EKVX NSCLC): > 100 µM | TGI (EKVX NSCLC): > 100 µM | GI50 (NCI-H23 lung): > 100 µM | TGI (NCI-H23 lung): > 100 µM | GI50 (SNB-75 CNS): > 100 µM | TGI (SNB-75 CNS): > 100 µM | GI50 (MOLT-4 leukemia): > 100 µM | TGI (MOLT-4 leukemia): > 100 µM | GI50 (SK-OV-3 ovarian): > 100 µM | TGI (SK-OV-3 ovarian): > 100 µM | GI50 (DU-145 prostate): > 100 µM | TGI (DU-145 prostate): > 100 µM | GI50 (UACC-62 melanoma): > 100 µM | TGI (UACC-62 melanoma): > 100 µM | GI50 (SK-MEL-2 melanoma): > 100 µM | TGI (SK-MEL-2 melanoma): > 100 µM | GI50 (HCT-116 colon): > 100 µM | TGI (HCT-116 colon): > 100 µM | GI50 (KM12 colon): > 100 µM | TGI (KM12 colon): > 100 µM | GI50 (HT29 colon): > 100 µM | TGI (HT29 colon): > 100 µM | GI50 (SF-295 CNS): > 100 µM | TGI (SF-295 CNS): > 100 µM | GI50 (HL-60(TB) leukemia): > 100 µM | TGI (HL-60(TB) leukemia): > 100 µM | GI50 (SF-539 CNS): > 100 µM | TGI (SF-539 CNS): > 100 µM | GI50 (BT-549 breast): > 100 µM | TGI (BT-549 breast): > 100 µM | GI50 (HOP-62 NSCLC): > 100 µM | TGI (HOP-62 NSCLC): > 100 µM | GI50 (SW-620 colon): > 100 µM | TGI (SW-620 colon): > 100 µM | GI50 (HCT-15 colon): > 100 µM | TGI (HCT-15 colon): > 100 µM | GI50 (M14 melanoma): > 100 µM | TGI (M14 melanoma): > 100 µM | GI50 (T-47D breast): > 100 µM | TGI (T-47D breast): > 100 µM | GI50 (SN12C renal): > 100 µM | TGI (SN12C renal): > 100 µM | GI50 (RXF 393 renal): > 100 µM | TGI (RXF 393 renal): > 100 µM | GI50 (MDA-MB-231 breast): > 100 µM | TGI (MDA-MB-231 breast): > 100 µM | GI50 (NCI/ADR-RES ovarian): > 100 µM | TGI (NCI/ADR-RES ovarian): > 100 µM | GI50 (MDA-MB-468 breast): > 100 µM | TGI (MDA-MB-468 breast): > 100 µM | GI50 (K-562 leukemia): > 100 µM | TGI (K-562 leukemia): > 100 µM | GI50 (IGROV1 ovarian): > 100 µM | TGI (IGROV1 ovarian): > 100 µM | GI50 (HCC-2998 colon): > 100 µM | TGI (HCC-2998 colon): > 100 µM | GI50 (OVCAR-4 ovarian): > 100 µM | TGI (OVCAR-4 ovarian): > 100 µM | GI50 (SK-MEL-28 melanoma): > 100 µM | TGI (SK-MEL-28 melanoma): > 100 µM | GI50 (U251 CNS): > 100 µM | TGI (U251 CNS): > 100 µM | GI50 (A498 renal): > 100 µM | TGI (A498 renal): > 100 µM | GI50 (MCF7 breast): > 100 µM | TGI (MCF7 breast): > 100 µM | GI50 (NCI-H522 lung): > 100 µM | TGI (NCI-H522 lung): > 100 µM | GI50 (LOX IMVI melanoma): > 100 µM | TGI (LOX IMVI melanoma): > 100 µM | GI50 (SNB-19 CNS): > 100 µM | TGI (SNB-19 CNS): > 100 µM | GI50 (CCRF-CEM leukemia): > 100 µM | TGI (CCRF-CEM leukemia): > 100 µM | GI50 (ACHN renal): > 100 µM | TGI (ACHN renal): > 100 µM
